This passage reports AUC results from patent publication US11266662B2, “Ganaxolone for use in prophylaxis and treatment of postpartum depression” (Marinus Pharmaceuticals, Inc., priority 2018, dated 2022).

This data set in a line: Phase 2A study (Magnolia) in women with postpartum depression: ganaxolone plasma concentrations / pharmacokinetics. Particulars: female, human, plasma, iv. The procedure: Approximately 200 women with PPD 18 to 45 years of age are screened to randomize up to 100 subjects across up to 6 cohorts. Approximately 10-30 subjects are randomized into each cohort. Randomized subjects receive the investigational product (IP), ganaxolone or matching placebo in a 1:1 ratio. In Cohorts 1-5 the IP is administered intravenously over 60 hours. In Cohort 6 the dosing is initiated with a 6-hour intravenous (IV) infusion followed by oral dosing for 28 days plus 3-day taper.
Ganaxolone is infused at a rate of 4 mg/hr (16 ml/h of ganaxolone 0.25 mg/ml solution) for 48 hours and then, to minimize any risks for withdrawal or rebound of anxiety and depression symptoms, at a rate of 2 mg/hr for the next 12 hours. The infusion is stopped at 60 hours. Total of 9 subjects are dosed for this cohort.
Ganaxolone is infused at a rate of 8 mg/hr (16 ml/h of ganaxolone 0.5 mg/ml solution) for 48 hours and then at a rate of 4 mg/hr for the next 12 hours. This dose is approximately double the expected plasma exposure as compared to Cohort 1 at steady state (Cohort 2 expected plasma concentration ˜100-120 ng/mL). The infusion is stopped at 60 hours.
Twelve mg bolus of ganaxolone is initially given over 2 minutes followed by ganaxolone infusion at a rate of 12 mg/hr (24 ml/h of ganaxolone 0.5 mg/ml solution) for 48 hours. The rate is then reduced to 6 mg/hr for the next 12 hours, which is done to minimize any risks for withdrawal or rebound of anxiety and depression symptoms. The infusion is stopped at 60 hours.
In this cohort dosing is initiated with ganaxolone infusion at a rate of 20 mg/hr (40 ml/h of ganaxolone 0.5 mg/ml solution or matching placebo) for 6 hours followed by ganaxolone 900 mg (four 225 mg capsules per dose) or matching placebo capsules given orally at dinner time for 28 days followed by a 3-day taper (three, two, and one 225 mg capsule(s) per day, respectively).
This initial infusion is targeted to provide a fast onset of antidepressant activity by delivery of rapid plasma exposures to ganaxolone. Then, at dinner time of Day 1 the subjects take their first oral dose of ganaxolone 900 mg (four 225 mg capsules) or matching placebo (4 capsules). […] In previous studies, ganaxolone has been given up to a daily dose of 2000 mg, and at single doses of 1000 mg.
Six samples are collected for pharmacokinetic analysis in Cohorts 1-5 and 12 samples in Cohort 6. […] Seven samples are collected during the inpatient phase of Cohort 6 (including 6 samples on Day 1) followed by collection of 5 samples during the outpatient phase during the study visits for a total of 12 samples in Cohort 6.

For orientation: AUC means concentration integrated over time. Take `CC(=O)[C@H]1CC[C@H]2[C@@H]3CC[C@H]4C[C@](C)(O)CC[C@]4(C)[C@H]3CC[C@]12C` [ganaxolone, 3α-hydroxy-3β-methyl-5α-pregnan-20-one]: the AUC was 1040 ng·h/mL (86 ug/kg, AUC12-24, calculated from Table 1C, dose 86 μg/kg/hr (row order of Table 1C)); 3340 ng·h/mL (86 ug/kg, AUC12-48, calculated from Table 1C, dose 86 μg/kg/hr (row order of Table 1C)); 2300 ng·h/mL (86 ug/kg, AUC24-48, calculated from Table 1C, dose 86 μg/kg/hr (row order of Table 1C)); 1810 ng·h/mL (150 ug/kg, AUC12-24, calculated from Table 1C, dose 150 μg/kg/hr (row order of Table 1C)); 5820 ng·h/mL (150 ug/kg, AUC12-48, calculated from Table 1C, dose 150 μg/kg/hr (row order of Table 1C)); 4010 ng·h/mL (150 ug/kg, AUC24-48, calculated from Table 1C, dose 150 μg/kg/hr (row order of Table 1C)). The exposure (AUC) reads like this: (160 ug/kg, AUC12-24, calculated from Table 1C, dose 160 μg/kg/hr (row order of Table 1C)) 1930 ng·h/mL; (160 ug/kg, AUC12-48, calculated from Table 1C, dose 160 μg/kg/hr (row order of Table 1C)) 6210 ng·h/mL; (160 ug/kg, AUC24-48, calculated from Table 1C, dose 160 μg/kg/hr (row order of Table 1C)) 4280 ng·h/mL; (170 ug/kg, AUC12-24, calculated from Table 1C, dose 170 μg/kg/hr (row order of Table 1C)) 2050 ng·h/mL; (170 ug/kg, AUC12-48, calculated from Table 1C, dose 170 μg/kg/hr (row order of Table 1C)) 6600 ng·h/mL; (170 ug/kg, AUC24-48, calculated from Table 1C, dose 170 μg/kg/hr (row order of Table 1C)) 4550 ng·h/mL. Further, the area under the curve (AUC) reads like this: (180 ug/kg, AUC12-24, calculated from Table 1C, dose 180 μg/kg/hr (row order of Table 1C)) 2170 ng·h/mL; (180 ug/kg, AUC12-48, calculated from Table 1C, dose 180 μg/kg/hr (row order of Table 1C)) 6980 ng·h/mL; (180 ug/kg, AUC24-48, calculated from Table 1C, dose 180 μg/kg/hr (row order of Table 1C)) 4820 ng·h/mL; (190 ug/kg, AUC12-24, calculated from Table 1C, dose 190 μg/kg/hr (row order of Table 1C)) 2290 ng·h/mL; (190 ug/kg, AUC12-48, calculated from Table 1C, dose 190 μg/kg/hr (row order of Table 1C)) 7370 ng·h/mL; (190 ug/kg, AUC24-48, calculated from Table 1C, dose 190 μg/kg/hr (row order of Table 1C)) 5080 ng·h/mL. Moreover, the area under the curve (AUC) was 2410 ng·h/mL (200 ug/kg, AUC12-24, calculated from Table 1C, dose 200 μg/kg/hr (row order of Table 1C)); 7760 ng·h/mL (200 ug/kg, AUC12-48, calculated from Table 1C, dose 200 μg/kg/hr (row order of Table 1C)); 5350 ng·h/mL (200 ug/kg, AUC24-48, calculated from Table 1C, dose 200 μg/kg/hr (row order of Table 1C)).
